# Like-named read-outs stand apart in the source and are kept apart here.
# Assays:
# [1] = biological target: Chicken α10 homomeric nAChR (Gallus gallus, UniProt Q9I8C7); assay: Two-electrode voltage clamp, recombinant homomeric receptor in X. laevis oocytes; type: cell-based; details: for EC50: mean ± SEM
# Description: (§1) For expression studies, rat and chicken α9 and α10 nAChR subunits subcloned into a modified pGEMHE vector were used. Capped cRNAs were in vitro transcribed from linearized plasmid DNA templates using RiboMAX™ Large Scale RNA Production System (Promega, Madison, WI, USA). The maintenance of X. laevis and the preparation and cRNA injection of stage V and VI oocytes have been described in detail elsewhere (Verbitsky et al., [2000]). Typically, oocytes were injected with 50 nl of RNase-free water containing 0.01–1.0 ng of cRNA (at a 1:1 molar ratio for heteromeric receptors) and maintained in Barth’s solution [in mM: NaCl 88, Ca(NO3)2 0.33, CaCl2 0.41, KCl 1, MgSO4 0.82, NaHCO3 2.4, HEPES 10] at 18°C. Electrophysiological recordings were performed 2–6 days after cRNA injection under a two-electrode voltage clamp with an Oocyte Clamp OC-725B or C amplifier (Warner Instruments Corporation, Hamden, CT, USA). Recordings were filtered at a corner frequency of 10 Hz using a 900 BT Tunable Active Filter (Frequency Devices Inc., Ottawa, IL, USA). Data acquisition was performed using a Patch Panel PP-50 LAB/1 interphase (Warner Instruments Corp., Hamden, CT, USA) at a rate of 10 points per second. Both voltage and current electrodes were filled with 3 M KCl and had resistances of ~1 MΩ. Data were analyzed using Clampfit from the pClamp 6.1 software. During electrophysiological recordings, oocytes were continuously superfused (~15 ml/min) with normal frog saline composed of: 115 mM NaCl, 2.5 mM KCl, 1.8 mM CaCl2, and 10 mM HEPES buffer, pH 7.2. Drugs were added to the perfusion solution for the application. The membrane potential was clamped to −70 mV. To minimize activation of the endogenous Ca^2+ sensitive chloride current (Elgoyhen et al., [2001]), all experiments were performed in oocytes incubated with the Ca^2+ chelator 1,2-bis (2-aminophenoxy) ethane-N,N,N’,N’-tetraacetic acid-acetoxymethyl ester (BAPTA-AM, 100 μM) for 3 h before electrophysiological recordings. […] The mean and SEM of peak current responses are presented. Agonist concentration-response curves were iteratively fitted, using Prism 6 software (GraphPad Software Inc., La Jolla, CA, USA), with the equation: I/Imax = A^nh/(A^nH + EC50^nH), where I is the peak inward current evoked by agonist at concentration A; Imax is the current evoked by the concentration of agonist eliciting a maximal response; EC50 is the concentration of agonist inducing half-maximal current response, and nH is the Hill coefficient. An equation of the same form was used to analyze the concentration dependence of antagonist induced blockage.
# [2] = biological target: Chicken α9 homomeric nAChR (Gallus gallus, UniProt Q9PTS8); assay: as above; type: cell-based; details: for EC50: mean ± SEM
# Description: as §1
# Rat α9 homomeric nAChR = biological target: T1, Rat α9 homomeric nAChR (Rattus norvegicus, UniProt P43144); assay: as above; type: cell-based
# T1 construct: expressed in transfected cells; host or cells: Xenopus laevis oocytes (cRNA injection)
# Description: as §1
# Chicken α9α10 nAChR [3] = biological target: T2, Chicken α9α10 nAChR (Gallus gallus, UniProt Q9I8C7+Q9PTS8); assay: Two-electrode voltage clamp, recombinant heteromeric receptor in X. laevis oocytes; type: cell-based; details: for Emax: read-out: Efficacy (maximal response as % of that elicited by 1 mM ACh), Chicken α9α10
# T2 construct: expressed in transfected cells; host or cells: Xenopus laevis oocytes (cRNA injection, 1:1 molar ratio)
# Description: as §1
# Rat α9α10 nAChR = biological target: T3, Rat α9α10 nAChR (Rattus norvegicus, UniProt P43144+Q9JLB5); assay: as above; type: cell-based; details: for Efficacy (maximal response as % of that elicited by 1 mM ACh) / EC50: Rat α9α10; for Efficacy (maximal response as % of that elicited by 1 mM ACh) / EC50 / Emax: mean ± SEM; for EC50: −70 mV, BAPTA-AM treated oocytes; for Emax: read-out: Efficacy (maximal response as % of that elicited by 1 mM ACh), Rat α9α10
# T3 construct: expressed in transfected cells; host or cells: Xenopus laevis oocytes (cRNA injection, 1:1 molar ratio)
# Description: as §1
# [4] = biological target: chicken α9–rat α10 hybrid receptor (Cα9-Rα10) (UniProt Q9JLB5+Q9PTS8); assay: Two-electrode voltage clamp, hybrid receptor in X. laevis oocytes; type: cell-based; details: mean ± SEM
# Description: as §1
# [5] = biological target: rat α9–chicken α10 hybrid receptor (Rα9-Cα10) (UniProt P43144+Q9I8C7); assay: as above; type: cell-based; details: mean ± SEM
# Description: as §1
# [6] = biological target: T4, rat α9α10x chimeric receptor (Rattus norvegicus, UniProt P43144+Q9JLB5, A264D/A292P/A308T/A312F/A328P/E329N/F253L/F325Y/H335A/I246L/I275V/I289S/I304M/I310V/I323L/L250F/L309M/M279L/M319L/N295S/R331H/S258A/S293A/V320I/Y260H); assay: Two-electrode voltage clamp, chimeric receptor in X. laevis oocytes; type: cell-based
# T4 construct: expressed in transfected cells; host or cells: Xenopus laevis oocytes (cRNA injection)
# Description: as §1
# The α10W55T mutant subunit was produced as previously described (Boffi et al., [2017]) using Quick change XL II kit (Stratagene, La Jolla, CA, USA). […]
# [7] = biological target: rat α9α10W55T receptor (Rα9-Rα10W55T) (Rattus norvegicus, UniProt P43144+Q9JLB5, W81T); assay: Two-electrode voltage clamp, mutant receptor in X. laevis oocytes; type: cell-based; details: mean ± SEM
# Description: For expression studies, rat and chicken α9 and α10 nAChR subunits subcloned into a modified pGEMHE vector were used. Capped cRNAs were in vitro transcribed from linearized plasmid DNA templates using RiboMAX™ Large Scale RNA Production System (Promega, Madison, WI, USA). The maintenance of X. laevis and the preparation and cRNA injection of stage V and VI oocytes have been described in detail elsewhere (Verbitsky et al., [2000]). Typically, oocytes were injected with 50 nl of RNase-free water containing 0.01–1.0 ng of cRNA (at a 1:1 molar ratio for heteromeric receptors) and maintained in Barth’s solution [in mM: NaCl 88, Ca(NO3)2 0.33, CaCl2 0.41, KCl 1, MgSO4 0.82, NaHCO3 2.4, HEPES 10] at 18°C. Electrophysiological recordings were performed 2–6 days after cRNA injection under a two-electrode voltage clamp with an Oocyte Clamp OC-725B or C amplifier (Warner Instruments Corporation, Hamden, CT, USA). Recordings were filtered at a corner frequency of 10 Hz using a 900 BT Tunable Active Filter (Frequency Devices Inc., Ottawa, IL, USA). Data acquisition was performed using a Patch Panel PP-50 LAB/1 interphase (Warner Instruments Corp., Hamden, CT, USA) at a rate of 10 points per second. Both voltage and current electrodes were filled with 3 M KCl and had resistances of ~1 MΩ. Data were analyzed using Clampfit from the pClamp 6.1 software. […]
# chicken short hair cells = assay: tissue or blood; details: Gallus gallus, read-out: Efficacy (maximum response normalized to maximal peak response to 3 mM ACh)
# Description: (§2) Chicken auditory organ (basilar papilla) was dissected from the temporal bone of embryonic chickens (white Leghorns either sex, 17–20 days in ovo). The tegmentum vasculosum was removed and the tectorial membrane was stripped from the basilar papilla with most of the short hair cells (SHCs) still attached. This “tectorial preparation” was then inverted and secured in the recording chamber by spring clips. SHCs were recorded in a region 25–50% the distance from the apical (lagenar) to the basal tip of the basilar papilla of the chicken. Apical turns of the organ of Corti were excised from BALB/c mice of either sex between postnatal day 11 (P11) and P13 (around the onset of hearing in altricial rodents). At this age, outer hair cells (OHCs) are already innervated by the MOC fibers (Pujol et al., [1998]; Simmons, [2002]). The tectorial membrane was removed and the organ of Corti was positioned under an insect pin affixed to a cover-slip with a drop of Sylgard.
# (§3) Basilar papilla and cochlear preparations were placed into a chamber on the stage of an upright microscope (Olympus BX51WI, Center Valley, PA, USA) at room temperature and used within 2 h. Cells were visualized on a monitor via a water immersion objective (60× magnification), differential interference contrast optics, and a CCD camera (Andor iXon 885, Belfast, UK). […]
# mouse outer hair cells = assay: tissue or blood; details: read-out: Efficacy (maximum response normalized to maximal peak response to 3 mM ACh)
# Description: as §2, §3
# Chicken α9α10 nAChR [8] = biological target: T2, Chicken α9α10 nAChR; set-up: method as in Elgoyhen et al., 2001; Lipovsek et al., 2012; details: previous work, ref Elgoyhen et al., 2001, Lipovsek et al., 2012; cited from earlier work
# [9] = Chicken α9α10, mean ± SEM, read-out: EC50
# [10] = α9α10x chimeric receptor, mean ± SEM
# chicken α9–rat α10 hybrid receptor (Cα9-Rα10), sequence (Q9PTS8 28-484): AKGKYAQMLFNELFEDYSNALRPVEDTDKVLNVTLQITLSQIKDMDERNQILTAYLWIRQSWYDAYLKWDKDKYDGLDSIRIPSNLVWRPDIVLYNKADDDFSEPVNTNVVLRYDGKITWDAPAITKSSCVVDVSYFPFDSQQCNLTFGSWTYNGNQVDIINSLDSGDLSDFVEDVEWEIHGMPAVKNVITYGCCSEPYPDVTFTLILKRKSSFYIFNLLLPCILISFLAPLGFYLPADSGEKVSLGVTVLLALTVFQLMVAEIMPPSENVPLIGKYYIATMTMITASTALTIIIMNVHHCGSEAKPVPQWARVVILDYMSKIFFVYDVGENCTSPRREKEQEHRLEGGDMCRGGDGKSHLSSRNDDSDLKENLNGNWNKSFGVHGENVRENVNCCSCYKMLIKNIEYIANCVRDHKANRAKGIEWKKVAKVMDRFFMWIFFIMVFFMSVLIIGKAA
# chicken α9–rat α10 hybrid receptor (Cα9-Rα10), sequence (Q9JLB5 25-447): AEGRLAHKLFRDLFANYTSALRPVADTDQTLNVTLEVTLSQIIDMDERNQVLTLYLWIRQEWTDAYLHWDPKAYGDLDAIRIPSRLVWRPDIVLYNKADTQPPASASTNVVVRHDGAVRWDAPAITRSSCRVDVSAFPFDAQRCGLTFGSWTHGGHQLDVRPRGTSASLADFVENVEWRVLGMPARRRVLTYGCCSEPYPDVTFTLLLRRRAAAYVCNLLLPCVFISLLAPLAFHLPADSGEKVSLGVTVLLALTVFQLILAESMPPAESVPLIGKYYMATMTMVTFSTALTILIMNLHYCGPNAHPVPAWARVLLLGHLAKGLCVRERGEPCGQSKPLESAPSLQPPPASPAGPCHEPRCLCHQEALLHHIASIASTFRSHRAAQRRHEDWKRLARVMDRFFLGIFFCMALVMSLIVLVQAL
# Chicken α9 homomeric nAChR, sequence (Q9PTS8 28-484): as the sequence (Q9PTS8 28-484) above
# T2 sequence (Q9PTS8 28-484): as above
# T2 sequence (Q9I8C7 27-452): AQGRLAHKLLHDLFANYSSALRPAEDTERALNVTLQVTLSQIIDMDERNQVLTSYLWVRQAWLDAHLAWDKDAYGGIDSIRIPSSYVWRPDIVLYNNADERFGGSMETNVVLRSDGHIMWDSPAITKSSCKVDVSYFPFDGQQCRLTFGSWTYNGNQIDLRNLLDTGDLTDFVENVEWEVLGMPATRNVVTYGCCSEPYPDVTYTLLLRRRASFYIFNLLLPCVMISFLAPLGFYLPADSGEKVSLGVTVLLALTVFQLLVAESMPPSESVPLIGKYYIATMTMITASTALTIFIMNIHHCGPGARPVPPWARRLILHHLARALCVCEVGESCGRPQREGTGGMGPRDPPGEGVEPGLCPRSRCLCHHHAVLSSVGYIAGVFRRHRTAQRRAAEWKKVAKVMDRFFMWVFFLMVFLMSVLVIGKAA
# T3 sequence (P43144 26-479): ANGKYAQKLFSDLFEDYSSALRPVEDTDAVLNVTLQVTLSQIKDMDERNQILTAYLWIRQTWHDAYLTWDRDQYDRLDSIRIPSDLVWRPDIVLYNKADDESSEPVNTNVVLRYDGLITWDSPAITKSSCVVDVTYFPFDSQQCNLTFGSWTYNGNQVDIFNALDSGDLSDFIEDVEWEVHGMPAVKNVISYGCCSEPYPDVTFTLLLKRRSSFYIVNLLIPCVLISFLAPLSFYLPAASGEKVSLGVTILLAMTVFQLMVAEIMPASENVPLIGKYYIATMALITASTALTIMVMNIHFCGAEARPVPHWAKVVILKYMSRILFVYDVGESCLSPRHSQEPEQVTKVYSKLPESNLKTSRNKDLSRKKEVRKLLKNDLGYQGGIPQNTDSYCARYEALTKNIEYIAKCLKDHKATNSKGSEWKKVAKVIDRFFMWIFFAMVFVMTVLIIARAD
# T3 sequence (Q9JLB5 25-447): as the sequence (Q9JLB5 25-447) above
# rat α9–chicken α10 hybrid receptor (Rα9-Cα10), sequence (P43144 26-479): as the sequence (P43144 26-479) above
# rat α9–chicken α10 hybrid receptor (Rα9-Cα10), sequence (Q9I8C7 27-452): as the sequence (Q9I8C7 27-452) above
# T1 sequence (P43144 26-479): as the sequence (P43144 26-479) above
# T4 sequence (P43144 26-479, stated change not applied): as the sequence (P43144 26-479) above
# T4 sequence (P43144+Q9JLB5 fused with the stated changes): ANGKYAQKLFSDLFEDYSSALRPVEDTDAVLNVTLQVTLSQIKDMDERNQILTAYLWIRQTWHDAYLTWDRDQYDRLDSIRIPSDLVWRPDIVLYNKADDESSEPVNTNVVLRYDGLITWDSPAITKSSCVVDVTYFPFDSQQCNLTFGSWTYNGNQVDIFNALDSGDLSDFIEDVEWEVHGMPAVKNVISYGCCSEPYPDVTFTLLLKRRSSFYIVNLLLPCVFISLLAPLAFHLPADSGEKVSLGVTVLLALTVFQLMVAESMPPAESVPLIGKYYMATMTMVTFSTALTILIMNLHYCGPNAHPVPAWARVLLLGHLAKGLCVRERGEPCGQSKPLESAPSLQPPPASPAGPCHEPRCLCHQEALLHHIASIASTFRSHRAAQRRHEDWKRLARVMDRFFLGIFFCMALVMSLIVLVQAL
# Chicken α10 homomeric nAChR, sequence (Q9I8C7 27-452): as the sequence (Q9I8C7 27-452) above
# rat α9α10W55T receptor (Rα9-Rα10W55T), sequence (P43144 26-479): as the sequence (P43144 26-479) above
# rat α9α10W55T receptor (Rα9-Rα10W55T), sequence (Q9JLB5 25-447 W81T): as the sequence (Q9JLB5 25-447) above, with W57T counted along it
smiles,measurement,setting,value
"C[N+](C)(C)CCO [Choline, choline]",EC50,[1],23.2 ± 8.3 µM
same,Emax,"[1]; read-out: Efficacy (maximal response as % of maximal ACh response), mean ± SEM",99.4 ± 9.5%
same,EC50,[2],280 ± 20 µM
same,Emax,"[2]; read-out: Efficacy (maximal response as % of that elicited by 1 mM ACh), mean ± SEM",73.7 ± 5.9%
same,Efficacy (maximal response as % of that elicited by 1 mM ACh),"Rat α9 homomeric nAChR; Rat α9, mean ± SEM",87.3 ± 6.0 (4) %
same,EC50,"Rat α9 homomeric nAChR; Rat α9, −70 mV, BAPTA-AM treated oocytes, mean ± SEM",188 ± 40 µM
same,Emax,"Rat α9 homomeric nAChR; read-out: Efficacy (maximal response as % of that elicited by 1 mM ACh), Rat α9, mean ± SEM",87 ± 6%
same,EC50,Chicken α9α10 nAChR [3]; [9],200 ± 16 µM
same,Emax,Chicken α9α10 nAChR [3]; mean ± SEM,88 ± 6.7%
same,Efficacy (maximal response as % of that elicited by 1 mM ACh),Rat α9α10 nAChR,37.5 ± 2.5 (9) %
same,Efficacy (maximal response as % of that elicited by 1 mM ACh),Rat α9α10 nAChR; listed as choline,38 ± 3%
same,EC50,Rat α9α10 nAChR,541 ± 62 µM
same,Emax,Rat α9α10 nAChR,37 ± 3%
same,EC50,[4]; Cα9-Rα10 hybrid,333 ± 66.2 µM
same,Efficacy (maximal response as % of maximal ACh response),[4]; Cα9-Rα10 hybrid,51.2 ± 6 (5) %
same,Emax,"[4]; read-out: Efficacy (maximal response as % of maximal ACh response), Cα9-Rα10 hybrid",51 ± 6%
same,EC50,[5]; Rα9-Cα10 hybrid,148 ± 12.1 µM
same,Efficacy (maximal response as % of responses to 1 mM ACh),[5]; Rα9-Cα10 hybrid,86.4 ± 2.1 (6) %
same,Emax,"[5]; read-out: Efficacy (maximal response as % of responses to 1 mM ACh), Rα9-Cα10 hybrid",86 ± 2%
same,Emax,"[6]; read-out: Efficacy (maximal response as % of maximal ACh response), α9α10x chimeric receptor, mean ± SEM",74 ± 1%
same,EC50,[6]; [10],160 ± 7.6 µM
same,Efficacy (maximal response as % of maximal ACh response),[6]; [10],74.3 ± 1.0 (5) %
same,Efficacy (responses to 10 mM choline as % of those elicited by 1 mM ACh),[7],7.4 ± 1.9 (5) %
same,Efficacy (responses to 10 mM choline as % of those elicited by 1 mM ACh),[7]; listed as choline,7 ± 2%
same,Emax,chicken short hair cells,90 ± 6%
same,Emax,mouse outer hair cells,50 ± 9%
"C[N+](C)(C)CCOC(N)=O [Carbachol, carbachol]",Efficacy (maximal response as % of that elicited by 1 mM ACh),"Chicken α9α10 nAChR [3]; Chicken α9α10, mean ± SEM",89.8 ± 7.0 (6) %
same,EC50,Chicken α9α10 nAChR [3]; [9],150 ± 15 µM
same,Potency relative to ACh (times lower),"Chicken α9α10 nAChR [3]; chicken α9α10, carbachol EC50 vs ACh",~12 times
same,Emax,Chicken α9α10 nAChR [3]; mean ± SEM,89 ± 7%
same,Efficacy (maximal response as % of that elicited by 1 mM ACh),Rat α9α10 nAChR,75.5 ± 5.2 (5) %
same,EC50,Rat α9α10 nAChR,159 ± 31.5 µM
same,Potency relative to ACh (times lower),"Rat α9α10 nAChR; rat α9α10, carbachol EC50 vs ACh",~12 times
same,Emax,Rat α9α10 nAChR,75 ± 5%
"CN1CCC[C@H]1c1cccnc1 [Nicotine, nicotine]",IC50,Chicken α9α10 nAChR [3],39.4 ± 3.4 µM
same,Agonist activity (currents elicited),Chicken α9α10 nAChR [3]; oocytes expressing chicken α9α10,did not elicit currents
same,Agonist activity (currents elicited),Rat α9α10 nAChR; oocytes expressing rat α9α10,did not elicit currents
"CC(=O)OCC[N+](C)(C)C [ACh, acetylcholine]",EC50,[1],2.2 ± 0.7 µM
same,EC50,[2],12.9 ± 1.4 µM
same,Imax (maximal ACh response),Rat α9 homomeric nAChR; homomeric rat α9,14 ± 2 nA
same,EC50,Chicken α9α10 nAChR [3],13.1 ± 2.6 µM
same,EC50,[5]; Rα9-Cα10 hybrid,11.6 ± 2.9 µM
same,Imax (maximal ACh response),[6]; rat α9 co-expressed with α10x,269 ± 103 nA
same,EC50,Chicken α9α10 nAChR [8],~10 µM
C[N+]1(C)CCN(c2ccccc2)CC1 [DMPP],Efficacy (maximal response as % of that elicited by 1 mM ACh),"Chicken α9α10 nAChR [3]; Chicken α9α10, mean ± SEM",32.6 ± 2.9 (5) %
same,EC50,Chicken α9α10 nAChR [3]; [9],9.8 ± 0.5 µM
same,Efficacy (maximal response as % of that elicited by 1 mM ACh),Rat α9α10 nAChR,0.6 ± 0.3 (6) %
same,EC50,Rat α9α10 nAChR,21.5 ± 4 µM

# Reference: PMC7892445 (Frontiers in Molecular Neuroscience, 2021)
